Test: Dose-response in microfluidic chip device: change in chip pressure (intraocular pressure model) after treatment of bovine vitreous humor
Settings: 12.5% homogenized BVH in PBS incubated with compound at 37° C. for 1 hour; 7 ul injected; relative change in chip pressure recorded for 50 min; half-maximal response; read-out: EC50 for treatment of bovine vitreous humor (glaucoma model)
Protocol: The compound bivalirudin TFA was tested in bovine vitreous humor (BVH) in a microfluidic chip device. A solution of 25% homogenized BVH in PBS buffer was prepared and diluted with an equal amount of a solution of the compound, so that the total BVH concentration was 12.5%. The sample was vortexed and incubated at 37° C. for 1 hour. A control of either PBS buffer or PBS with 10% ethanol or DMSO was used and incubated with BVH under the same conditions.
The test compound-BVH solution was introduced into the reservoir of the microfluidic chip device and flow rate and pressure change were recorded. Various concentrations of the compound were tested for effects on the treatment of bovine vitreous humor. 7 ul of each test solution was injected into the microfluidic chip through a sample injector. Recording of the flow rate and pressure change was continued for 50 additional minutes after the sample injection. The relative change in chip pressure for the entire course of the experiment was obtained.
The EC50 value was taken as the point on the x-axis at which the logarithmic function of the micromolar concentration of the compound produced half-maximal response. […] The response was calculated by taking the absolute difference between the control and test value for each concentration. […]

polymyxin B sulfate
EC50: 4.3 nM

bivalirudin TFA
EC50: 1.2 nM

— patent publication US20230090884A1, “DEVICE AND METHODS FOR ISOLATING EXTRACELLULAR MATRIX BODIES” (AUFBAU MEDICAL INNOVATIONS LIMITED, priority 2020, published 2023)
